Assay results from article PMC6222747, “Synthesis and Structure-Activity Relationship of Daphnetin Derivatives as Potent Antioxidant Agents” (Molecules : A Journal of Synthetic Chemistry and Natural …, 2018).

How the values were obtained:
[1] = DPPH radical scavenging assay; type: biochemical; details: for EC50: DPPH radical scavenging, 30 min at room temperature, absorbance 517 nm, triplicate; for DPPH antioxidant activity compared with DAP 1, result in words: DPPH assay
Procedure: (§1) The antioxidant activity is influenced by many factors, which cannot be fully described with a single antioxidant assay. Thus, in this study, antioxidant activities in vitro were evaluated using the free radical scavenging effect on 2,2′-diphenyl-1-picrylhydrazyl (DPPH), 2,2′-azinobis-(3-ethylbenzthiazoline-6-sulfonate) cation (ABTS^+). and the ferric reducing power (FRAP) assay, respectively, according to the literature with a slight modification.
Each sample in an ethanol solution (0.1 mL) was added to 3.9 mL DPPH ethanol solution (0.1 mmol/L). The solution was vortexed for 10 s and incubated at room temperature for 30 min. […] The Trolox standard solution (concentration range: 0–0.4 mmol/L) in ethanol was analyzed under the same conditions as those used for calibration. […]

[2] = Ferric reducing power (FRAP) assay; type: biochemical; details: for reducing antioxidant power (FRAP), result in words: compared with daphnetin or the parent compound; for reducing antioxidant power, fold higher than that of the standard antioxidant Trolox: relative to Trolox
Procedure: as §1
The FRAP (ferric reducing antioxidant power) reagent was prepared with acetate buffer (300 mmol/L, pH 3.6), 2,4,6-tripyridyl-s-triazine (TPTZ) (10 mmol/L in HCl, 40 mmol/L) and FeCl3 (20 mmol/L). The proportions were 10:1:1 (v:v:v), respectively. Each sample solution was added to the FRAP reagent (1:30, v:v) and incubated at 37 °C for 5 min. The absorbance was determined at 593 nm using a spectrophotometer (Hitachi U-2800 Spectrophotometer, Tokyo, Japan). The Trolox standard solution (concentration range: 0–0.4 mmol/L) in ethanol was analyzed under the same conditions as those used for the calibration. The values of the reducing power were determined using a calibration curve of Trolox and expressed as the Trolox equivalent ([…], mmolTrolox/mmol sample).

[3] = ABTS+ radical scavenging assay; type: biochemical; details: 3 min at room temperature, absorbance 734 nm, triplicate
Procedure: as §1
The mixture was incubated in the dark at room temperature for 15–16 h before use. […] Each sample solution (0.1 mL) was added to 3.9 mL ABTS^+ solution, and the absorbance was measured at room temperature after 3 min. The Trolox standard solution (concentration range: 0–0.4 mmol/L) in ethanol was analyzed under the same conditions as those used for the calibration. […]

[4] = Metabolic stability assay in vitro (UGT and COMT incubation system, S9 fraction); type: in vitro ADME, human; details: for half-life: UGT and COMT incubation system, pooled human S9, 2 mM UDPGA and 0.2 mM SAM, 37 °C, pH 7.4, read-out: metabolic elimination t1/2
Text: The simultaneous improvement of utility as a drug and pharmacological activity is still a challenge for the structural optimization of lead compounds. From the view of the chemical structure, the catechol group is not only the pharmacophore of the coumarins but also the susceptible group for the attack of phase II metabolic enzymes. As phenolic hydroxyls, catechol coumarins primarily undergo conjugative reactions mediated by phase II metabolizing enzymes, including uridine-5-diphosphate glucuronosyl transferase (UGT) and catechol-O-methyltransferase (COMT). […] In summary, 4-carbethoxyl DAP 9 holds strong potential to be developed as an antioxidant agent with excellent antioxidant activity and good pharmacokinetic properties.
Metabolic stability assay in vitro
To determine the effects of a combination of glucuronidation and methylation, daphnetin and compound 9 were
incubated with S9 fraction in the presence of two cofactors (2 mM UDPGA and 0.2 mM SAM). The incubation mixture
contained pooled human S9 fraction (0.02 mg mL-1 protein), 5 mM MgCl2, 2 mM UDPGA, 0.2 mM SAM and 5 mM
daphnetin derivatives (dissolved in DMSO, final concentration 1%) in 200 mL of 50 mM Tris buffer (pH 7.4), as
described in the reported manuscript. Controls were incubated in the absence of UDPGA and SAM. After incubation at
37 °C for 0 to 6 0 min, the reactions were terminated by adding […] of cold acetonitrile. The samples were
centrifuged at 20 000 g for 20 min. The supernatants (200 mL) were subjected to assay for the time - dependent
esculetins depletion using HPLC.
Daphnetin and compound 9 were analyzed by a ultra - fast l iquid chromatography spectrometry system (Shimadzu,
Kyoto, Japan), equipped with two LC - 20AD pumps, a DGU - 20A3 vacuum degasser, a SIL - 20ACHT auto - sampler, a
CTO - 20AC column oven, an SPD - M 20A diode - array detector (DAD), a CBM - 20A communicati ons bus module, a […]
the equation: t1/2 = ln2/-k, where k represents the terminal elimination rate constant and is calculated as the negative […]

[5] = system: human single cell DNA; set-up: method as in PMID 12561251; details: cited from earlier work
[6] = system: mononuclear cells of umbilical blood; set-up: method as in PMID 15113635; details: cited from earlier work

Compound | EC50 [1] | reducing antioxidant power (FRAP), result in words [2] | EC50 [3] | further results
O=C(O)c1cc2ccc(O)c(O)c2oc1=O [Compound 16] | 37.7 ± 1.16 µM | little effect on its antioxidant activity | 146 ± 5.77 µM | –
CC(=O)c1cc2ccc(O)c(O)c2oc1=O [Compound 15] | 50.6 ± 0.61 µM | – | 80.52 ± 0.61 µM | reducing antioxidant power, fold higher than that of the standard antioxidant Trolox [2]: 3 fold
CCOC(=O)c1cc2ccc(O)c(O)c2oc1=O [Compound 17] | 44 ± 0.89 µM | this situation did not change | 138.9 ± 0.14 µM | –
N#Cc1cc2ccc(O)c(O)c2oc1=O [Compound 14] | 47 ± 2.05 µM | – | 95.8 ± 4.18 µM | reducing antioxidant power, fold higher than that of the standard antioxidant Trolox [2]: 3 fold
Methyl 2-(7,8-dihydroxy-2-oxo-2H-chromen-4-yl)acetic acid [Compound 10] | 50.2 ± 1.12 µM | significant decrease in antioxidant activity | 222.7 ± 1.84 µM | –
O=C(O)c1c(-c2nc3ccccc3s2)c(=O)oc2c(O)c(O)ccc12 [Compound 21, 3-(Benzo[d]thiazol-2-yl)-7,8-dihydroxy-2-oxo-2H-chromene-4-carboxylic acid] | 130 ± 3.54 µM | significant decrease in antioxidant activity | 108 ± 6.35 µM | –
O=c1cc(-c2ccccc2)c2ccc(O)c(O)c2o1 [Compound 3, 7,8-Dihydroxy-4-phenyl-2H-chromen-2-one] | 55.6 ± 0.78 µM | decreased activities of daphnetin but were still superior to Trolox | 198 ± 28.2 µM | DPPH antioxidant activity compared with DAP 1, result in words [1]: lower than that of DAP 1
COc1cc2ccc(=O)oc2c(O)c1O [Compound 11, Fraxetin, reference compound] | 45.6 ± 1.48 µM | – | 173 ± 4.83 µM | –
O=c1oc2c(O)c(O)ccc2cc1-c1nc2ccccc2s1 [Compound 19] | 71.3 ± 2.4 µM | slightly reduced antioxidant activity | 86.6 ± 3.17 µM | –
C#CCNC(=O)c1cc2ccc(O)c(O)c2oc1=O [Compound 18] | 55.6 ± 1.48 µM | this situation did not change | 91.2 ± 2.29 µM | –
O=C(O)Cc1cc(=O)oc2c(O)c(O)ccc12 [Compound 9, 2-(7,8-Dihydroxy-2-oxo-2H-chromen-4-yl)acetic acid] | 31.4 ± 0.68 µM | three-fold increase in reducing antioxidant power | – | EC50 ([3]; listed as 4-CH2COOH DAP (9)): 72.3 ± 2.7 µM; half-life [4]: 96.5 min; t1/2 of compound 9 relative to that of compound 1 ([4]; UGT and COMT incubation systems in vitro): five-fold longer
O=c1oc2c(O)c(O)ccc2cc1-c1ccccc1 [Compound 13] | 43.7 ± 2.08 µM | – | 108 ± 1.42 µM | DPPH antioxidant activity compared with DAP 1, result in words [1]: more effective
CC(=O)Oc1ccc2ccc(=O)oc2c1OC(C)=O [Compound 12, 2-oxo-2H-Chromene-7,8-diyl diacetate] | 698 ± 5.22 µM | – | 4560 ± 50.1 µM | –
O=c1oc2c(O)c(O)ccc2c(-c2nnn[nH]2)c1-c1nc2ccccc2s1 [Compound 23, 3-(Benzo[d]thiazol-2-yl)-7,8-dihydroxy-4-(1H-tetrazol-5-yl)-2H-chromen-2-one] | 168 ± 11.6 µM | lower antioxidant activity compared with that of compound 19 | 121.7 ± 0.22 µM | –
CC(C)(C)c1cc(=O)oc2c(O)c(O)ccc12 [Compound 4, 7,8-Dihydroxy-4-tert-butyl-2H-chromen-2-one] | 65.5 ± 2.84 µM | decreased activities of daphnetin but were still superior to Trolox | 234.7 ± 2.03 µM | –
Cc1c(C(F)(F)F)c2ccc(O)c(O)c2oc1=O [Compound 24, 7,8-Dihydroxy-3-methyl-4-(trifluoromethyl)-2H-chromen-2-one] | 53.8 ± 2.25 µM | – | 107 ± 6.23 µM | –
[N-]=[N+]=NCc1cc(=O)oc2c(O)c(O)ccc12 [Compound 8, 7,8-Dihydroxy-4-azidemethyl-2H-chromen-2-one] | 62.2 ± 3.73 µM | markedly decreased antioxidant activity | 238 ± 4.47 µM | –
NC(=O)c1c(-c2nc3ccccc3s2)c(=O)oc2c(O)c(O)ccc12 [Compound 22, 3-(benzo[d]thiazol-2-yl)-7,8-dihydroxy-2-oxo-2H-chromene-4-carboxamide] | 66.8 ± 1.38 µM | lower antioxidant activity compared with that of compound 19 | 122 ± 4.41 µM | –
Cc1c(C)c2c(c(C)c1O)CCC(C)(C(=O)O)O2 (stereo not drawn) [Trolox, 6-hydroxy-2,5,7,8-tetramethylchroman-2-carboxylic acid, reference compound] | 53.2 ± 2.02 µM | – | 241 ± 2.52 µM | –
Cc1cc(=O)oc2c(O)c(O)ccc12 [Compound 2, 7,8-Dihydroxy-4-methyl-2H-chromen-2-one] | 85.6 ± 2.13 µM | decreased activities of daphnetin but were still superior to Trolox | 224.5 ± 1.94 µM | protection of human single cell DNA from oxidative attack, compared with curcumin and resveratrol [5]: more effective in protection of human single cell DNA from oxidative attack than curcumin and resveratrol; protection of mononuclear cells of umbilical blood from oxidative attack, compared with resveratrol [6]: stronger activities in protecting mononuclear cells of umbilical blood from oxidative attack than resveratrol
O=c1ccc2ccc(O)c(O)c2o1 [Compound 1, 7,8-dihydroxycoumarin, reference compound] | 46.2 ± 1.45 µM | – | 159 ± 4.63 µM | reducing antioxidant power, fold higher than that of the standard antioxidant Trolox [2]: 2.5 fold; protection of mononuclear cells of umbilical blood from oxidative attack, compared with resveratrol [6]: stronger activities in protecting mononuclear cells of umbilical blood from oxidative attack than resveratrol; half-life [4]: 20.3 min
O=c1cc(C(F)(F)F)c2ccc(O)c(O)c2o1 [Compound 5, 7,8-Dihydroxy-4-trifluoromethyl-2H-chromen-2-one] | 45.7 ± 1.26 µM | three-fold increase in reducing antioxidant power | 75.2 ± 1.58 µM | –
